Values joined by “and” are separate entries in the source; they are usually repeats but may differ in a detail not shown here. Identical values can stand only once.
How the values were obtained:
[1] = biological target: T1, LIF/LIFR complex (Homo sapiens, UniProt P42702); assay: Alpha Screen inhibition of LIFR/LIF binding (cell-free); conditions: for IC50: cell-free, LIFR 4.5 nM, biotinylated LIF 9 nM, read-out: LIFR IC50 AlphaScreen (inhibition of LIFR/LIF binding)
T1 construct: purchased Sino Biological (LIFR); R&D Systems (LIF)
T1 sequence (P42702 45-833 limits assumed): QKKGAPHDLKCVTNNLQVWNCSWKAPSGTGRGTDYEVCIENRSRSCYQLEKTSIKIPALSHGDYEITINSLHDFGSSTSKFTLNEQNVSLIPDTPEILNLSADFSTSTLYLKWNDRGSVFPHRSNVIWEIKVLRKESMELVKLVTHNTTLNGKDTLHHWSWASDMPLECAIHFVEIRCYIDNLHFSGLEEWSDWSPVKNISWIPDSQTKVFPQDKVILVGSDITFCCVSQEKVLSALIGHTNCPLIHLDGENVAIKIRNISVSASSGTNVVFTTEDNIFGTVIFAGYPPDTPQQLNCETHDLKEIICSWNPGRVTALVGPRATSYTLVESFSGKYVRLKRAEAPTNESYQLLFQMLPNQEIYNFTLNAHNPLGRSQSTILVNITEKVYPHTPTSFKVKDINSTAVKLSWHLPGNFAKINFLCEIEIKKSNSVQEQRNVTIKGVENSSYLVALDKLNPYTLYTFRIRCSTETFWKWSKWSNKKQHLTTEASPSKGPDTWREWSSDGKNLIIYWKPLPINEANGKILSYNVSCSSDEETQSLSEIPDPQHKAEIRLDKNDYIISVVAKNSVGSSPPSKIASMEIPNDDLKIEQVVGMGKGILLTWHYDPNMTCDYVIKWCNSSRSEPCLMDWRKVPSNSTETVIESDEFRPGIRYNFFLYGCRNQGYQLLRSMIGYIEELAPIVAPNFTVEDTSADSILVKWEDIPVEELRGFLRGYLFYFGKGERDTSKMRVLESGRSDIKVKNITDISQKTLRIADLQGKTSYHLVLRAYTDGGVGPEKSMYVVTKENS
Method: Recombinant human LIFR (His Tag) and biotinylated recombinant human LIF were purchased from Sino Biologicals (Sino Biological Europe GmbH, Dusseldorf, Germany) and R&D Systems (Abingdon, UK), respectively, and both were reconstituted as required by the manufacturer. […] The assay was carried out in white, low-volume, 384-well AlphaPlates (PerkinElmer, Waltham, MA, USA) using a final volume of 25 µL and an assay buffer containing 25 mM Hepes (pH 7.4), 100 mM NaCl, and 0.005% Kathon. The concentration of DMSO in each well was maintained at 5%. […] Then, LIF was added (biotinylated, final concentration 9 nM), and the samples were incubated for 15 min prior to adding His-Tag acceptor beads (final concentration 20 ng/µL) for 30 min. Then, streptavidin donor beads were added (final concentration 20 ng/µL), and the plate was incubated in the dark for 2 h and then read in an EnSpire Alpha multimode plate reader (PerkinElmer, Waltham, MA, USA).

[2] = biological target: T2, human GPBAR1 (Homo sapiens, UniProt Q8TDU6); assay: GPBAR1 transactivation (CRE-luciferase) in HEK-293T cells; type: cell-based
T2 construct: expressed in transfected cells; host or cells: HEK-293T
T2 sequence (Q8TDU6 1-330): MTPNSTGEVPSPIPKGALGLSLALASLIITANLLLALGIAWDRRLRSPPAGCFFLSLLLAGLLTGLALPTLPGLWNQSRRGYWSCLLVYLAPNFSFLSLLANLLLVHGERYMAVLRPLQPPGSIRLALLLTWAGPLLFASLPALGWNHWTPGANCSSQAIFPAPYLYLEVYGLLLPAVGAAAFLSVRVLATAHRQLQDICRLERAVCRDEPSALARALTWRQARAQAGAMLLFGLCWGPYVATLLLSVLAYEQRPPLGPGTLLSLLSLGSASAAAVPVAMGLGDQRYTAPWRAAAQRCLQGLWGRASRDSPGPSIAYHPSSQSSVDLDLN

[3] = test system: MIA PaCa-2 cells; assay: MTS cell proliferation assay; type: cell-based, human
Method: The cell viability assay was done using the CellTiter 96 Aqueous One Solution Cell Proliferation Assay (Promega, Milano, Italy), a colorimetric method for accessing the number of viable cells in proliferation as described previously ([13]). MIA-PaCa 2 cells were seeded in DMEM complete medium at 36 *10^3 cells/100 uL well into 96-well tissue culture plate. After 24 h, cells were serum starved for 24 h and then were primed with the LIFR major ligand, LIF (10 ng/ml) alone or in combination with BAR502 (5,10 and 20 μM) or only with vehicle. In another experimental setting, MIA-PaCa 2 cells were triggered with PDL103 (10 μM) alone, LIF (10 ng/ml) alone or plus PDL103 or BAR502 (10 μM) or both. In a different setting cell were exposed to an antagonist of the Farnesoid X receptor (FXR), 3-(naphthalen-2-yl)-5-(piperidin-4-yl)-1,2,4-oxadiazole (GP7) (10 µM) ([54]), LIF (10 ng/ml) alone or in combination with GP7 or BAR502 or both. Then cell proliferation assessed as mentioned above. Absorbance was measured using a 96 well reader spectrophotometer (490 nm). In these experiments each experimental setting was replicated ten folds. For analysis the background readings with the medium alone, were subtracted from the samples read-outs.

effect on LIF/LIFR complex formation (LIFR antagonism), in words ([1]; cell-free Alpha Screen)	IC50 ([2]; Hek293T, transactivation induced by TLCA (10 μM), read-out: Hek293T GPBAR1 Antagonism IC50) [µM]	Compound	IC50 [1]	EC50 ([2]; transactivation, agonism, read-out: GPBAR1 EC50 Transact) [µM]	effect on LIF-induced proliferation (MTS) ([3]; LIF 10 ng/mL + BAR502 5, 10, 20 µM, 24 h, serum free)	effect of PDL103 co-treatment on BAR502 action on LIF/LIFR induced proliferation and EMT ([3]; PDL103 10 μM + BAR502 10 μM + LIF 10 ng/ml)
		CC[C@H]1[C@@H](O)C2C3CC[C@H]([C@H](C)CCO)[C@@]3(C)CCC2[C@@]2(C)CC[C@@H](O)C[C@@H]12 (stereo partly shown) [BAR502]	3.6 µM and 3.59 µM	0.4 ± 0.1	reversed the LIF-proliferative effect in a concentration-dependent manner	
inactive	19	OCc1ccc(-c2ccc(OCc3cc(-c4c(Cl)cccc4Cl)no3)cc2)cc1 [PDL103, (4’-((3-(2,6-dichlorophenyl)isoxazol-5-yl)methoxy)-[1,1’-biphenyl]-4-yl)methanol]	97.5 ± 29.3 µM			failed to reverse the effect of BAR502

— publication PMC10043345, “Discovery of BAR502, as potent steroidal antagonist of leukemia inhibitory factor receptor for the treatment of pancreatic adenocarcinoma” (Frontiers in Oncology, 2023)
